Source: patent US20260373135A1, “Methods of Treatment with Tradipitant” (Vanda Pharmaceuticals Inc., priority 2022, published 2026)
Where two headings read alike, the source gives them in different places.

Columns and labels:
CYP3A4 = CYP3A4 (Homo sapiens, UniProt P08684); assay: Role of CYP3A4 genotype (CYP3A4*22) in metabolism/clearance of tradipitant, phase III study pharmacokinetics; assay type: in vivo
Procedure: To investigate the role of CYP3A4 genotypes in the metabolism of tradipitant, pharmacokinetics are analyzed in view of CYP3A4 genotype in a phase III study of humans dosed with tradipitant. In the investigation, all CYP3A4 alleles (as recognized by the Human Cytochrome P450 Allele Nomenclature Database) are reviewed. The analysis includes a linear model that is tested on various ratios of parent compound (tradipitant) or its metabolites, including: • Ratio A=Sum of (M2+M3+M4)/M8, and • Ratio B=(tradipitant)/(M3).
After correction for covariates, including principal components (PCs), age, sex, and body mass index (BMI), CYP3A4*22 is identified as a variant of interest, with a p-value of 1×10^−5. […] The effect of multiple alleles of interest is cumulative, as shown by the median ratios present in individuals having a CYP3A4 genotype of *22/*1, i.e. heterozygous for the *22 variant of interest (*22 het), compared with individuals having a CYP3A4 genotype of *22/*22+*3/*1 genotype, i.e., homozygous for the *22 variant of interest.
The graphs shown in FIGS. 2A-2H illustrate the plasma concentrations of tradipitant (FIG. 2A), metabolite M2 (FIG. 2B), metabolite M3 (FIG. 2C), metabolite M4 (FIG. 2D), metabolite M8 (FIG. 2E), ratio of tradipitant to M8 (FIG. 2F), ratio of all metabolites to M8 (i.e., (M2+M3+M4)/M8) (FIG. 2G), and ratio of tradipitant to M3 (FIG. 2H) in individuals in a study population. […] This reflects the reduced ability to clear tradipitant in individuals having a *22 allele.
The apparent clearance of tradipitant is plotted for individuals having a wild type (WT) genotype as compared to individuals having a heterozygous *22 (*22 het) genotype. The ratio of clearance (CL) in *22 het to WT is calculated as exp (median (HET)-median (WT)). Below these calculations, the P value is reported for a t test comparing the ETA values. […] Post hoc ETAs are the following: log (individual value for clearance/typical value for clearance), where “typical value” is essentially the median value. […]

[1] = Four-period, two-way crossover open label single-dose food-effect pharmacokinetic study of tradipitant capsules in healthy participants (plasma tradipitant and metabolites M2, M3, M4, M8); assay type: in vivo, human; details: for AUC(0-t), Least Squares Geometric Mean Ratio (%), Estimate / AUC(inf), Least Squares Geometric Mean Ratio (%), Estimate / Cmax, Least Squares Geometric Mean Ratio (%), Estimate: fed/fasted; for Tmax / AUC(0-t) / AUC(0-inf) / Cmax: plasma; for Tmax: median; for AUC(inf) Ratio of geometric means (170 mg / 85 mg) / Cmax Ratio of geometric means (170 mg / 85 mg): 85 mg vs 170 mg tradipitant
Procedure: To evaluate the pharmacokinetics and effect of food on the bioavailability of single-dose capsules containing 170 mg tradipitant and 85 mg tradipitant, an open label, four-period, two-way crossover study is performed. The study comprises two cohorts, each of which conducts a screening phase and an evaluation phase. Cohort 1 only conducts Period 1 and Period 2 (FIG. 5), while Cohort 2 only conducts Period 3 and Period 4 (FIG. 6). It is possible for a participant in Cohort 1 to be a Participant in Cohort 2.
The screening phase (Day-21 to Day-2, FIGS. 5-6) consists of a screening visit wherein an informed consent is obtained from potential participants, and their eligibility is initially assessed based on vital signs, body measurements, physical examination, ECG, clinical laboratory tests, drug and alcohol screen, and medical history. Clinical laboratory testing includes a pharmacogenetics sample for whole genome sequencing. Participants may include men or women aged 18-55 years, inclusive at the time of screening; having a Body Mass Index (BMI) of ≥18.0 and ≤39.0 kg/m^2 (BMI=weight (kg)/[height (m)]^2); and female participants of childbearing potential must be non-pregnant and non-lactating. Participants must be in good health as determined by a medical and psychiatric history, physical examination, electrocardiogram, and serum chemistry and hematology; willing to comply with study procedures and restrictions; willing to provide a pharmacogenetic sample; and have negative test result for selected substances of abuse at screening. Individuals may be excluded from participating based on history (within the 12 months prior to screening) of psychiatric disorders; current clinically significant cardiovascular, respiratory, neurologic, hepatic, hematopoietic, renal, gastrointestinal, or metabolic dysfunction unless currently controlled and stable; history of intolerance and/or hypersensitivity to other NK-1 receptor antagonists; clinically significant deviation from normal in clinical laboratory results, vital signs measurements, or physical examination findings at screening as determined by the clinical investigator; major surgery, trauma (including broken pelvis/legs), illness (e.g. sepsis), or immobility for 3 or more days within the past month; active cancer or cancer treatment within the past 6 months prior to screening; central venous catheter in place or within the past month; impaired liver function indicated by AST, ALT, or bilirubin >2 times the upper limit of normal, unless there is an isolated bilirubin >2 times the upper limit of normal due to Gilbert's syndrome; pregnancy or recent pregnancy (within 6 weeks prior to screening) or women who are breastfeeding; history of drug or alcohol abuse as defined in DSM-V, Diagnostic Criteria for Drug and Alcohol Abuse, within the 12 months prior to screening and/or regular consumption of alcoholic drinks (>2 drinks/day or >14 drinks/week); randomization in a previous tradipitant trial; and participants at risk of suicide, in the opinion of the Investigator. […]

[2] = fasted conditions, 85 mg vs 170 mg

Chain of CYP3A4 (P08684 whole entry): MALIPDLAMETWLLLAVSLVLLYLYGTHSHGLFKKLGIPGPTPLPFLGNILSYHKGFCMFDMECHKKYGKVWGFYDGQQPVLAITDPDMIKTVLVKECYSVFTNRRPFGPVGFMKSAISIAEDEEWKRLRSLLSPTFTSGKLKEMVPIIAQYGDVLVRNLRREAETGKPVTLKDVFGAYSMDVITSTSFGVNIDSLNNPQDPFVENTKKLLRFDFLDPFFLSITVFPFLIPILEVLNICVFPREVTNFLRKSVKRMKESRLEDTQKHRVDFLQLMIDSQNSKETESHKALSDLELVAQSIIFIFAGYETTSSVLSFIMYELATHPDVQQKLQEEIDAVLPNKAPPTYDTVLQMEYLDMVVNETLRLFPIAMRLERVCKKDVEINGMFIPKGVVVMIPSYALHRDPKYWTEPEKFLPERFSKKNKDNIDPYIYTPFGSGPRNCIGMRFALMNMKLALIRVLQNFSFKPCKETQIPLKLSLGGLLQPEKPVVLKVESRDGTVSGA

For `O=C(c1ccccc1Cl)c1cccnc1-c1nnn(Cc2cc(C(F)(F)F)cc(C(F)(F)F)c2)c1-c1ccncc1` [tradipitant, {2-[1-(3,5-Bistrifluoromethylbenzyl)-5-pyridin-4-yl-1H-[1,2,3]triazol-4-yl]-pyridin-3-yl}-(2-chlorophenyl)-methanone], the “reduction of tradipitant clearance in *22 heterozygotes” value (CYP3A4; CYP3A4*22 heterozygotes vs wild type) was 34%, the “median plasma concentration in *22 het vs wild type” value (CYP3A4; CYP3A4*22 heterozygous vs wild type (*1/*1), plasma, FIGS. 2A-2D) was “clearly greater median concentrations” and the “median ratio of tradipitant to M8 in *22 het vs wild type” value (CYP3A4; CYP3A4*22 heterozygous vs wild type, plasma, FIG. 2F) was “clearly greater median ratio of tradipitant to M8”. The “increase in Tmax in the fed state” value ([1]; 85 mg tradipitant oral, fed vs fasted) was 2 fold, the “AUC(0-t), Least Squares Geometric Mean Ratio (%), Estimate” value ([1]; 85 mg tradipitant oral) was 234.21% and the “AUC(inf), Least Squares Geometric Mean Ratio (%), Estimate” value ([1]; 85 mg tradipitant oral) was 263.08%. For the same compound, the “Cmax, Least Squares Geometric Mean Ratio (%), Estimate” value ([1]; 85 mg tradipitant oral) was 437.59%, the “Cmax, Least Squares Geometric Mean Ratio (%), Estimate” value ([1]; 85 mg tradipitant oral, listed as Tradipitant) was 473.59% and the Tmax ([1]; 170 mg tradipitant oral, fasted) was 1.50 (15) hr. For the same compound, the “AUC(0-t), Least Squares Geometric Mean Ratio (%), Estimate” value ([1]; 170 mg tradipitant oral) was 328.21%, the “AUC(inf), Least Squares Geometric Mean Ratio (%), Estimate” value ([1]; 170 mg tradipitant oral) was 381.70% and the “Cmax, Least Squares Geometric Mean Ratio (%), Estimate” value ([1]; 170 mg tradipitant oral) was 703.87%. For the same compound, the Tmax ([1]; 170 mg tradipitant oral, fed) was 4.00 (15) hr, the “dose proportionality of AUC(inf)” value [1, 2] was “close to dose proportional” and the “dose proportionality of Cmax” value [1, 2] was “less than dose proportionality”. The “AUC(inf) Ratio of geometric means (170 mg / 85 mg)” value ([1]; fasted conditions) was 1.92, the “Cmax Ratio of geometric means (170 mg / 85 mg)” value ([1]; fasted conditions) was 1.32 and the “AUC(inf) Ratio of geometric means (170 mg / 85 mg)” value ([1]; fed conditions) was 2.30. The “Cmax Ratio of geometric means (170 mg / 85 mg)” value ([1]; fed conditions) was 1.93, the “effect of fed state on absorption (extent/rate, Tmax)” value ([1]; fed vs fasted, both 170 mg and 85 mg doses) was “an increase in the extent and a decrease in the rate of absorption” and the AUC(0-t) ([1]; human, po, 85 mg, 85 mg tradipitant oral, fasted, ln-transformed, read-out: AUC(0-t), Least Squares Geometric Mean, Fasted) was 1650 ng·h/mL. For the same compound, the AUC(0-inf) ([1]; human, po, 85 mg, 85 mg tradipitant oral, fasted, ln-transformed, read-out: AUC(inf), Least Squares Geometric Mean, Fasted) was 1790 ng·h/mL, the Cmax ([1]; human, po, 85 mg, 85 mg tradipitant oral, fasted, ln-transformed, read-out: Cmax, Least Squares Geometric Mean, Fasted) was 84.7 ng/mL and the AUC(0-inf) ([1]; human, po, 85 mg, 85 mg tradipitant oral, fasted, geometric mean [geometric % CV], read-out: AUC(inf)) was 1840 ng·h/mL. The Cmax ([1]; human, po, 85 mg, 85 mg tradipitant oral, fasted, geometric mean [geometric % CV], read-out: Cmax) was 84.7 ng/mL, the Tmax ([1]; human, po, 85 mg, 85 mg tradipitant oral, fasted, read-out: Tmax) was 2 h and the AUC(0-t) ([1]; human, po, 85 mg, 85 mg tradipitant oral, fed, ln-transformed, read-out: AUC(0-t), Least Squares Geometric Mean, Fed) was 3860 ng·h/mL. It also gave an AUC(0-inf) ([1]; human, po, 85 mg, 85 mg tradipitant oral, fed, ln-transformed, read-out: AUC(inf), Least Squares Geometric Mean, Fed) of 4700 ng·h/mL, a Cmax ([1]; human, po, 85 mg, 85 mg tradipitant oral, fed, ln-transformed, read-out: Cmax, Least Squares Geometric Mean, Fed) of 401 ng/mL and an AUC(0-inf) ([1]; human, po, 85 mg, 85 mg tradipitant oral, fed, geometric mean [geometric % CV], read-out: AUC(inf)) of 4520 ng·h/mL. The Cmax ([1]; human, po, 85 mg, 85 mg tradipitant oral, fed, geometric mean [geometric % CV], read-out: Cmax) was 401 ng/mL, the Tmax ([1]; human, po, 85 mg, 85 mg tradipitant oral, fed, read-out: Tmax) was 4 h and the AUC(0-t) ([1]; human, po, 170 mg, 170 mg tradipitant oral, fasted, ln-transformed, read-out: AUC(0-t), Least Squares Geometric Mean, Fasted) was 2800 ng·h/mL. It also gave an AUC(0-inf) ([1]; human, po, 170 mg, 170 mg tradipitant oral, fasted, ln-transformed, read-out: AUC(inf), Least Squares Geometric Mean, Fasted) of 2730 ng·h/mL, a Cmax ([1]; human, po, 170 mg, 170 mg tradipitant oral, fasted, ln-transformed, read-out: Cmax, Least Squares Geometric Mean, Fasted) of 111 ng/mL and an AUC(0-inf) ([1]; human, po, 170 mg, 170 mg tradipitant oral, fasted, geometric mean [geometric % CV], read-out: AUC(inf)) of 3530 ng·h/mL. The Cmax ([1]; human, po, 170 mg, 170 mg tradipitant oral, fasted, geometric mean [geometric % CV], read-out: Cmax) was 112 ng/mL, the Tmax ([1]; human, po, 170 mg, 170 mg tradipitant oral, fasted, read-out: Tmax) was 1.5 h and the AUC(0-t) ([1]; human, po, 170 mg, 170 mg tradipitant oral, fed, ln-transformed, read-out: AUC(0-t), Least Squares Geometric Mean, Fed) was 9180 ng·h/mL. It also gave an AUC(0-inf) ([1]; human, po, 170 mg, 170 mg tradipitant oral, fed, ln-transformed, read-out: AUC(inf), Least Squares Geometric Mean, Fed) of 10400 ng·h/mL, a Cmax ([1]; human, po, 170 mg, 170 mg tradipitant oral, fed, ln-transformed, read-out: Cmax, Least Squares Geometric Mean, Fed) of 778 ng/mL and an AUC(0-inf) ([1]; human, po, 170 mg, 170 mg tradipitant oral, fed, geometric mean [geometric % CV], read-out: AUC(inf)) of 10400 ng·h/mL. It also gave a Cmax ([1]; human, po, 170 mg, 170 mg tradipitant oral, fed, geometric mean [geometric % CV], read-out: Cmax) of 774 ng/mL and a Tmax ([1]; human, po, 170 mg, 170 mg tradipitant oral, fed, read-out: Tmax) of 4 h.
